Laboratory results: patent US20090220445A1, “HAIR CARE COMPOSITIONS AND METHODS FOR INCREASING HAIR DIAMETER AND DELIVERING ADDITIONAL BENEFITS” (priority 2008, published 2009)

System: Primary human dermal papilla cells
Experiment: Synergy study: survival of metabolically stressed dermal papilla cells (ATP, Cell Titer Glo)
Type: cell-based
Conditions: cells metabolically stressed 48 hours in reduced media, control 100% water
Experimental: The dermal papilla, in normal human hair, is the control center for hair diameter. Increasing survival of dermal papilla cells in situ leads to increased hair diameter. Accordingly, an increase in survival of dermal papilla cells correlates with an increase in hair diameter.
Primary human dermal papilla cells were metabolically stressed for 48 hours in reduced standard tissue culture media. During this period of stress the cells were treated with the mixtures or individual ingredients below. After 48 hr the metabolic activity of the cells was measured by the amount of ATP using the Cell Titer Glo™ kit (Promega).

With `Cn1c(=O)c2c(ncn2C)n(C)c1=O` [Caffeine] the “Survival rate: % Change from Control” value (0.05%) was “+41%”.

In the case of `NC(=O)c1cccnc1` [Niacinamide], the “Survival rate: % Change from Control” value (0.006%) is reported as −8%.

For `CC(C)(CO)[C@@H](O)C(=O)NCCCO` [Panthenol], the “Survival rate: % Change from Control” value (0.15%) was “+6%”.
